Literature values in patent publication EP1921109A2, “Grafted cyclodextrin” (Cellresin Technologies, LLC, priority 2004, dated 2005).

Assays:
[1] = aqueous solutions

| Structure (SMILES) | Flavor Threshold ppb in Water | Odor Threshold ppb in Water | Concentrations of TCA detected in untrained panels [1] | Concentrations of TCA detected by trained panels ([1]; as low as) |
| --- | --- | --- | --- | --- |
| CCCCCCCCCC=O [Decanal] | 1.07 ppb | 0.53 ppb |  |  |
| CCCC(=O)OCC [Ethyl butyrate] | 0.13 ppb | 0.13 ppb |  |  |
| CC(C)=CCC/C(C)=C/C=O [Geranial] | 40.0 ppb |  |  |  |
| CCCCCC=O [Hexanal] | 3.66 ppb | 9.18 ppb |  |  |
| C=C(C)[C@H]1CC=C(C)CC1 [Limonene] | 210 ppb | 60 ppb |  |  |
| C=CC(C)(O)CCC=C(C)C (centres unmarked) [Linalool] | 3.8 ppb | 5.3 ppb |  |  |
| CC(C)=CCC/C(C)=C\C=O [Neral] | 41.4 ppb | 85 ppb |  |  |
| CCCCCCCC=O [Octanal] | 0.52 ppb | 1.41 ppb |  |  |
| COc1c(Cl)cc(Cl)cc1Cl [TCA, 2,4,6-trichloroanisole] |  |  | 20 - 30 ppt | 5 - 10 ppt |
| CC1=CCC2CC1C2(C)C (stereo not drawn) [α-Pinene] | 1014 ppb | 9.5 ppb |  |  |
| CC1=CCC(C(C)(C)O)CC1 (stereo not drawn) [α-Terpineol] | 300 ppb | 280 ppb |  |  |
| C=CC(=C)CCC=C(C)C [β-Myrcene] | 42 ppb | 36 ppb |  |  |
